From US11685732B2, “MYST family histone acetyltransferase inhibitors” (Epizyme, Inc., priority 2017, dated 2023)

Experiments:
KAT-5 = KAT-5 (Homo sapiens (Human), UniProt Q92993); experiment: KAT-5 biochemical inhibition assay (SAMDI mass spectrometry)
Method in brief: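 KAT-5 at 9 nM final was preincubated with serially diluted compound (2% DMSO) in 50 mM Tris pH 8.0 with 1 mM DTT. Reaction ran with 1 μM peptide substrate and 0.5 μM acetyl-CoA for 90 min at 25° C, was quenched with 0.5% formic acid, and was read by SAMDI-TOF mass spectrometry.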

KAT-6A = KAT-6A (Homo sapiens (Human), UniProt Q92794); experiment: KAT-6A biochemical inhibition assay (SAMDI mass spectrometry)
KAT-6A, sequence (Q92794 other isoform, or with tags, fused parts or gaps): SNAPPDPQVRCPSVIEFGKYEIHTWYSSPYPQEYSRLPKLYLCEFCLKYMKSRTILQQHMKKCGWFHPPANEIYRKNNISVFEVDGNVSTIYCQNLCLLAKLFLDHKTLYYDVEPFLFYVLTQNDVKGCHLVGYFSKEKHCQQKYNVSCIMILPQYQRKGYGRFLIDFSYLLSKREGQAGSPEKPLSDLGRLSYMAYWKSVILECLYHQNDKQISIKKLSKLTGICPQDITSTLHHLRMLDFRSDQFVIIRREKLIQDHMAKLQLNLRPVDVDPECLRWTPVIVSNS
Method in brief: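 Enzyme (12.5 nM final) pre-incubated with serially diluted compounds (2% DMSO final) in 50 mM Tris pH 8.0 with Tween20, gelatin and 1 mM DTT. Reaction started with 1 μM peptide substrate and 1 μM acetyl-CoA, run 90 min at 25 °C, quenched with 0.5% formic acid, read by SAMDI-TOF mass spectrometry; IC50 derived.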

KAT-7 = KAT-7 (Homo sapiens (Human), UniProt O95251); experiment: KAT-7 biochemical inhibition assay (SAMDI mass spectrometry)
KAT-7, sequence (O95251 other isoform, or with tags, fused parts or gaps): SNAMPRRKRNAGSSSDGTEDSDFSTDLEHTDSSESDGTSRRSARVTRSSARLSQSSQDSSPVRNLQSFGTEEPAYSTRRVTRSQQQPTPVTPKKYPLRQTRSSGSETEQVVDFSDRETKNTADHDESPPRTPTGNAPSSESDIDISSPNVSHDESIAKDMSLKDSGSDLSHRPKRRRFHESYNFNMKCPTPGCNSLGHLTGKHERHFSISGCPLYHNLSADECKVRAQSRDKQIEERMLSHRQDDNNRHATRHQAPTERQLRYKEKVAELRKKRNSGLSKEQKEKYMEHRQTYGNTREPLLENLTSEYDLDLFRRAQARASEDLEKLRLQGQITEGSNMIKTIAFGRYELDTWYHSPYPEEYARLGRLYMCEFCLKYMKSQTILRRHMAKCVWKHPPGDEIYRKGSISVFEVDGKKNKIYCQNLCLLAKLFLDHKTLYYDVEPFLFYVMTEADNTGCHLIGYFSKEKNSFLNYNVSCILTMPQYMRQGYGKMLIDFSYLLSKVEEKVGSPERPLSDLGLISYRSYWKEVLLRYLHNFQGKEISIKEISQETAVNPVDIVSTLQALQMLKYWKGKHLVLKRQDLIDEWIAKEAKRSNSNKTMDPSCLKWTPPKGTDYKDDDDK
Method in brief: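 KAT-7 (6 nM) was pre-incubated with serially diluted compound (2% DMSO) in Tris pH 8.0 with DTT. Reaction with 1 μM peptide and 2 μM acetyl-CoA ran 120 min at 25 °C and was stopped with 0.5% formic acid. Acetylation was read by SAMDI-TOF mass spectrometry to give IC50.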

KAT-8 = KAT-8 (Homo sapiens (Human), UniProt Q9H7Z6); experiment: KAT-8 biochemical inhibition assay (SAMDI mass spectrometry)
KAT-8, sequence (Q9H7Z6 other isoform, or with tags, fused parts or gaps): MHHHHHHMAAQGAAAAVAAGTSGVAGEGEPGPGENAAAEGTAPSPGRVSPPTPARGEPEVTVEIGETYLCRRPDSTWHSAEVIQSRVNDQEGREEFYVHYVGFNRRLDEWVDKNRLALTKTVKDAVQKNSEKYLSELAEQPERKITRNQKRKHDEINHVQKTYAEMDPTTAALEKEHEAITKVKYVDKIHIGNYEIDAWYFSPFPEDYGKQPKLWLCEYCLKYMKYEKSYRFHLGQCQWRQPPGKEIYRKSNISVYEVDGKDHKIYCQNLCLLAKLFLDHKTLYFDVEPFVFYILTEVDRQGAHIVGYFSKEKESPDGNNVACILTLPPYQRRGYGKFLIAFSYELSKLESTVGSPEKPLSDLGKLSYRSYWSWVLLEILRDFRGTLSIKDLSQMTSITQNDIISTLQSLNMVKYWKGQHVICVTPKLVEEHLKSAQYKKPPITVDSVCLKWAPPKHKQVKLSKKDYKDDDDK
Method in brief: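 Compounds in 2% DMSO pre-incubated with 12.5 nM enzyme in 50 mM Tris pH 8.0 with Tween20, gelatin and 1 mM DTT. Then 1 μM peptide and 5 μM acetyl-CoA were added, 90 min at 25 °C; formic acid stop and SAMDI-TOF mass spectrometry for IC50.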

KAT-5, sequence (Q92993 other isoform, or with tags, fused parts or gaps): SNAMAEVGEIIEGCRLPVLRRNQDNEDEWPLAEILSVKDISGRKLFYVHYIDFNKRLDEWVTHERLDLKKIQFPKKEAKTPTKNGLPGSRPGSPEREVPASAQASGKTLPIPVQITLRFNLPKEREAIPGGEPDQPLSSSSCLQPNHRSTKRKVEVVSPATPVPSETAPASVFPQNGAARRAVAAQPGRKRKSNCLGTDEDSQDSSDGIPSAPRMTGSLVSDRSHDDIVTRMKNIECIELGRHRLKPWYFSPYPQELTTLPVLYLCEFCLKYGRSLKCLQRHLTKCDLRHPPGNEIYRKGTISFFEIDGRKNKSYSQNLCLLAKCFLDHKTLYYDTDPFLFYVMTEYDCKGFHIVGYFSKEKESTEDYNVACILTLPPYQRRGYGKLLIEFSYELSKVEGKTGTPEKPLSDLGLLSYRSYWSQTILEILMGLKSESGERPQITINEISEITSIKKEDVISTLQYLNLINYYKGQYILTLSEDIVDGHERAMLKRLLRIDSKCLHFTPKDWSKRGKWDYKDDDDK

Compound	IC50 (KAT-5) [µM]	IC50 (KAT-6A) [µM]	IC50 (KAT-7) [µM]	IC50 (KAT-8) [µM]
Cn1cnc(-c2cc(Cl)c(F)c(C(=O)NNS(=O)(=O)c3ccccn3)c2)c1 [Compound I-330]	< 10	< 10	< 10	10 to 50
Cn1cnc(-c2cc(Cl)c(F)c(C(=O)NNS(=O)(=O)C[C@H]3CC[C@@H](N(C)C(=O)OC(C)(C)C)CC3)c2)c1 [Compound I-331]	< 10	10 to 50	< 10	10 to 50
Cn1cnc(-c2cc(Cl)c(F)c(C(=O)NNS(=O)(=O)C[C@H]3CC[C@H](N(C)C(=O)OC(C)(C)C)CC3)c2)c1 [Compound I-332]	< 10	< 10	< 10	10 to 50
Cn1cnc(-c2cc(Cl)c(F)c(C(=O)NNS(=O)(=O)C[C@@H]3CCC[C@@H](NC(=O)OC(C)(C)C)C3)c2)c1 [Compound I-333]	< 10	< 10	< 10	10 to 50
Cn1cnc(-c2cc(Cl)c(F)c(C(=O)NNS(=O)(=O)CC34CCC(CC3)CC4)c2)c1 [Compound I-334]	< 10	< 10	< 10	10 to 50
CC1CCCCC1CS(=O)(=O)NNC(=O)c1cc(-c2cn(C)cn2)cc(Cl)c1F (centres unmarked) [Compound I-335]	< 10	< 10	< 10	10 to 50
CN(C)C(=O)NC1CCC(CS(=O)(=O)NNC(=O)c2cc(-c3cn(C)cn3)cc(Cl)c2F)C1 (centres unmarked) [Compound I-336]	< 10	< 10	< 10	10 to 50
CN[C@H]1CC[C@H](CS(=O)(=O)NNC(=O)c2cc(-c3cn(C)cn3)cc(Cl)c2F)CC1 [Compound I-337]	10 to 50	10 to 50	< 10	10 to 50
CCNC(=O)N(C)[C@H]1CC[C@H](CS(=O)(=O)NNC(=O)c2cc(-c3cn(C)cn3)cc(Cl)c2F)CC1 [Compound I-338]	< 10	< 10	< 10	10 to 50
Cn1cnc(-c2cc(Cl)c(F)c(C(=O)NNS(=O)(=O)CC3CCC(N)C3)c2)c1 (centres unmarked) [Compound I-339]	10 to 50	10 to 50	< 10	10 to 50
Cn1cnc(-c2cc(Cl)c(F)c(C(=O)NNS(=O)(=O)CC3CCC(NC(N)=O)C3)c2)c1 (centres unmarked) [Compound I-340]	< 10	< 10	< 10	10 to 50
Cn1cnc(-c2cc(Cl)c(F)c(C(=O)NNS(=O)(=O)CC3CCC(NC(=O)N4CCC4)C3)c2)c1 (centres unmarked) [Compound I-341]	< 10	< 10	< 10	10 to 50
Cn1cnc(-c2cc(Cl)c(F)c(C(=O)NNS(=O)(=O)CC3CCCC(F)(F)C3)c2)c1 (centres unmarked) [Compound I-342]	< 10	< 10	< 10	10 to 50
CN(C(=O)OC(C)(C)C)c1cccc(S(=O)(=O)NNC(=O)c2cc(-c3cn(C)cn3)cc(Cl)c2F)c1 [Compound I-343]	< 10	< 10	< 10	10 to 50
Cn1cnc(-c2cc(Cl)c(F)c(C(=O)NNS(=O)(=O)CC3CCC(NC(=O)N4CCCCC4)C3)c2)c1 (centres unmarked) [Compound I-345]	< 10	< 10	< 10	10 to 50
Cn1cnc(-c2cc(Cl)c(F)c(C(=O)NNS(=O)(=O)CC3CCC(NC(=O)N4CCCC4)C3)c2)c1 (centres unmarked) [Compound I-346]	< 10	< 10	< 10	10 to 50
CCOC1CCC(CS(=O)(=O)NNC(=O)c2cc(-c3cn(C)cn3)cc(Cl)c2F)CC1 (centres unmarked) [Compound I-347]	< 10	< 10	< 10	10 to 50
CCNC(=O)N[C@H]1CCC[C@H](CS(=O)(=O)NNC(=O)c2cc(-c3cn(C)cn3)cc(Cl)c2F)C1 [Compound I-348]	< 10	< 10	< 10	10 to 50
Cn1cnc(-c2cc(Cl)c(F)c(C(=O)NNS(=O)(=O)C[C@H]3CCC[C@H](N)C3)c2)c1 [Compound I-349]	10 to 50	10 to 50	< 10	10 to 50
Cn1cnc(-c2cc(Cl)c(F)c(C(=O)NNS(=O)(=O)C[C@H]3CCC[C@H](NC(=O)OC(C)(C)C)C3)c2)c1 [Compound I-350]	< 10	< 10	< 10	10 to 50
Cn1cnc(-c2cc(Cl)c(F)c(C(=O)NNS(=O)(=O)C[C@@H]3CCC[C@@H](N)C3)c2)c1 [Compound I-351]	10 to 50	10 to 50	10 to 50	10 to 50

Compound	IC50 (KAT-5) [µM]	IC50 (KAT-6A) [µM]	IC50 (KAT-7) [µM]	IC50 (KAT-8) [µM]
CCNC(=O)N1CCC(C)C(CS(=O)(=O)NNC(=O)c2cc(-c3cn(C)cn3)cc(Cl)c2F)C1 (centres unmarked) [Compound I-352]	< 10	10 to 50	< 10	10 to 50
CO[C@H]1CC[C@@H](CS(=O)(=O)NNC(=O)c2cc(-c3cn(C)cn3)cc(Cl)c2F)CC1 [Compound I-353]	< 10	< 10	< 10	10 to 50
Cn1cnc(-c2cc(Cl)c(F)c(C(=O)NNS(=O)(=O)c3ccc(OCc4ccccc4)nc3)c2)c1 [Compound I-354]	< 10	10 to 50	< 10	10 to 50
CCNC(=O)N[C@@H]1CCC[C@@H](CS(=O)(=O)NNC(=O)c2cc(-c3cn(C)cn3)cc(Cl)c2F)C1 [Compound I-355]	< 10	< 10	< 10	10 to 50
CCO[C@@H]1CCC[C@H](CS(=O)(=O)NNC(=O)c2cc(-c3cn(C)cn3)cc(Cl)c2F)C1 [Compound I-356]	< 10	10 to 50	< 10	10 to 50
CCO[C@H]1CCC[C@H](CS(=O)(=O)NNC(=O)c2cc(-c3cn(C)cn3)cc(Cl)c2F)C1 [Compound I-357]	< 10	< 10	< 10	10 to 50
Cn1cnc(-c2cc(Cl)c(F)c(C(=O)NNS(=O)(=O)CC3(F)CCCCC3)c2)c1 [Compound I-358]	< 10	< 10	< 10	10 to 50
COc1ccc(CN(C)C(=O)NC2CCC(CS(=O)(=O)NNC(=O)c3cc(-c4cn(C)cn4)cc(Cl)c3F)C2)cc1 (centres unmarked) [Compound I-359]	< 10	< 10	< 10	10 to 50
CNC(=O)NC1CCC(CS(=O)(=O)NNC(=O)c2cc(-c3cn(C)cn3)cc(Cl)c2F)C1 (centres unmarked) [Compound I-360]	< 10	< 10	< 10	10 to 50
Cn1cnc(-c2cc(Cl)c(F)c(C(=O)NNS(=O)(=O)c3cnn(CCOCc4ccccc4)c3)c2)c1 [Compound I-361]	10 to 50	10 to 50	< 10	10 to 50
Cn1cnc(-c2cc(Cl)c(F)c(C(=O)NNS(=O)(=O)c3cnn(CCO)c3)c2)c1 [Compound I-362]	10 to 50	10 to 50	< 10	10 to 50
CCNC(=O)N(C)[C@H]1CC[C@@H](CS(=O)(=O)NNC(=O)c2cc(-c3cn(C)cn3)cc(Cl)c2F)CC1 [Compound I-363]	< 10	10 to 50	< 10	10 to 50
CN[C@H]1CC[C@@H](CS(=O)(=O)NNC(=O)c2cc(-c3cn(C)cn3)cc(Cl)c2F)CC1 [Compound I-364]	10 to 50	10 to 50	< 10	10 to 50
CN(C)C(=O)N(C)[C@H]1CC[C@@H](CS(=O)(=O)NNC(=O)c2cc(-c3cn(C)cn3)cc(Cl)c2F)CC1 [Compound I-365]	< 10	< 10	< 10	10 to 50
CN(C)C(=O)N(C)[C@H]1CC[C@H](CS(=O)(=O)NNC(=O)c2cc(-c3cn(C)cn3)cc(Cl)c2F)CC1 [Compound I-366]	< 10	< 10	< 10	10 to 50
CC(=O)Nc1cccc(S(=O)(=O)NNC(=O)c2cc(-c3cn(C)cn3)cc(Cl)c2F)c1 [Compound I-367]	< 10	< 10	< 10	10 to 50
COCCOc1cccc(S(=O)(=O)NNC(=O)c2cc(-c3cn(C)cn3)cc(Cl)c2F)c1 [Compound I-368]	< 10	< 10	< 10	10 to 50
COCCOc1ccc(S(=O)(=O)NNC(=O)c2cc(-c3cn(C)cn3)cc(Cl)c2F)cc1 [Compound I-369]	< 10	10 to 50	< 10	10 to 50
CC(=O)Nc1ccccc1S(=O)(=O)NNC(=O)c1cc(-c2cn(C)cn2)cc(Cl)c1F [Compound I-370]	10 to 50	< 10	< 10	10 to 50
Cn1cnc(-c2cc(Cl)c(F)c(C(=O)NNS(=O)(=O)C[C@H]3CCOC3)c2)c1 [Compound I-371]	< 10	< 10	< 10	10 to 50
